Source: ChEMBL document CHEMBL4680160, “A perspective review on fatty acid amide hydrolase (FAAH) inhibitors as potential therapeutic agents” (Eur J Med Chem, 2020)

Molecular target: T1, Fatty-acid amide hydrolase 1 (Rattus norvegicus, UniProt P97612)
T1 sequence (P97612 whole entry): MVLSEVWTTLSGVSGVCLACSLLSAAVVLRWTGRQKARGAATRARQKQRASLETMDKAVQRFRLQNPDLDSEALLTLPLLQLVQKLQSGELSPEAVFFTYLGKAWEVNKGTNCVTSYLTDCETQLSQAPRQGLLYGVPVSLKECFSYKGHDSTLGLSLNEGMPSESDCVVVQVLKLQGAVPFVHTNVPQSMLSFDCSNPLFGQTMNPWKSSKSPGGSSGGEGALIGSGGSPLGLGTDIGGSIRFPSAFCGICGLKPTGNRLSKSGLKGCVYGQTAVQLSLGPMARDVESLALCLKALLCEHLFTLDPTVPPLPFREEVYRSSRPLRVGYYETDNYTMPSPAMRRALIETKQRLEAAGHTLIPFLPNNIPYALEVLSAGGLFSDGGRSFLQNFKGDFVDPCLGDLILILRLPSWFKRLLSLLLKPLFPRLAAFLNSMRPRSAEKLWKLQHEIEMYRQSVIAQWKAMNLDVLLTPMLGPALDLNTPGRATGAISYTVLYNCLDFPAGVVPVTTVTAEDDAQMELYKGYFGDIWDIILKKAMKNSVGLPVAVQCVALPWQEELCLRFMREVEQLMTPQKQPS
Test: Inhibition of FAAH in rat brain homogenate using [3H]AEA as substrate
Type: tissue-based

| Structure (SMILES) | IC50 |
| --- | --- |
| CCCC/C=C/COCC(=O)Nc1ccc(-c2nc3ncccc3[nH]2)cc1 | 64000 nM |
| O=C(COc1ccc(-c2ccccc2)cc1)Nc1cccc(-c2nc3cccnc3[nH]2)c1 | 13000 nM |
| O=C(COc1ccc(-c2ccccc2)cc1)Nc1ccc(-c2nc3ncccc3o2)cc1 | 350 nM |
| O=C(COc1ccc(C2CCCCC2)cc1)Nc1ccccc1-c1nc2ncccc2[nH]1 | 650 nM |
| CCC/C=C/COCC(=O)Nc1ccccc1-c1nc2ncccc2[nH]1 | 5500 nM |
| O=C(COc1ccc(-c2ccccc2)cc1)Nc1ccccc1-c1nc2ncccc2[nH]1 | 1100 nM |
| CCC/C=C/COCC(=O)Nc1cccc(-c2nc3ncccc3o2)c1 | 17000 nM |
| O=C(COc1ccc(C2CCCCC2)cc1)Nc1cccc(-c2nc3ncccc3[nH]2)c1 | 47000 nM |
| CCC/C=C/COCC(=O)Nc1cccc(-c2nc3cccnc3[nH]2)c1 | 73000 nM |
| O=C(COc1ccc(C2CCCCC2)cc1)Nc1cccc(-c2nc3ncccc3o2)c1 | 2600 nM |
| O=C(COc1ccc(-c2ccccc2)cc1)Nc1ccc(-c2nc3ncccc3[nH]2)cc1 | 620 nM |
| CC(C)c1ccc(OCC(=O)Nc2cccc(-c3nc4ncccc4o3)c2)cc1 | 2100 nM |
| O=C(COc1ccc(-c2ccccc2)cc1)Nc1cccc(-c2nc3ncccc3o2)c1 | 630 nM |
| O=C(COc1ccccc1)Nc1cccc(-c2nc3ncccc3o2)c1 | 18000 nM |
| O=C(COc1ccc(C2CCCCC2)cc1)Nc1ccc(-c2nc3ncccc3[nH]2)cc1 | 1500 nM |

Molecular target: T1, Fatty-acid amide hydrolase 1
Test: Inhibition of rat FAAH using [3H]-AEA as substrate by liquid chromatography-mass spectrometry

| Structure (SMILES) | IC50 |
| --- | --- |
| CCCCCCNC(=O)n1ccc(=O)[nH]c1=O | 492 nM |
| CC(=O)Oc1cn(C(=O)NCCCCCCCc2ccccc2)c(=O)[nH]c1=O | 3 nM |
| CC(=O)Oc1cn(C(=O)NCCCc2ccc(-c3ccccc3)cc2)c(=O)[nH]c1=O | 0.3 nM |
| CCCCCCNC(=O)n1cc(F)c(=O)[nH]c1=O [CARMOFUR] | 25 nM |
| CC(=O)Oc1cn(C(=O)NCCCCc2ccc(-c3ccccc3)cc2)c(=O)[nH]c1=O | 0.8 nM |
| CCCCCCNC(=O)n1cc(OC(C)=O)c(=O)[nH]c1=O | 25 nM |
| CCCCCCNC(=O)n1cc(C#N)c(=O)[nH]c1=O | 25 nM |

Species: Rattus norvegicus
Test: Selectivity ratio of IC50 for rat NAAA using d4-PEA as substrate to IC50 for rat FAAH using [3H]-AEA as substrate

| Structure (SMILES) | Ratio IC50 |
| --- | --- |
| CCCCCCNC(=O)n1ccc(=O)[nH]c1=O | 2 |
| CC(=O)Oc1cn(C(=O)NCCCCCCCc2ccccc2)c(=O)[nH]c1=O | 3130 |
| CC(=O)Oc1cn(C(=O)NCCCc2ccc(-c3ccccc3)cc2)c(=O)[nH]c1=O | > 10000 |
| CC(=O)Oc1cn(C(=O)NCCCCc2ccc(-c3ccccc3)cc2)c(=O)[nH]c1=O | > 10000 |

Test system: not listed separately
Test: In vivo inhibition of FAAH in NMRI mouse assessed as remaining enzymatic activity in liver at 30 mg/kg, po measured after 1 hr by AEA-substrate based scintillation counting method relative to control
Type: functional

| Structure (SMILES) | Activity |
| --- | --- |
| O=c1oc(Oc2ccc(F)cc2F)nn1-c1cccc(O)c1 | 12% |
| Cl.O=c1oc(Oc2ccc(F)cc2F)nn1-c1ccc(OCCN2CCCCC2)cc1 | 10% |
| Cl.Cl.O=c1oc(Oc2ccc(F)cc2F)nn1-c1ccc(OCCCN2CCNCC2)cc1 | 8% |
| Cl.Cl.O=c1oc(Oc2ccc(F)cc2F)nn1-c1ccc(OCCN2CCNCC2)cc1 | 5% |
| Cl.O=c1oc(Oc2ccc(F)cc2F)nn1-c1ccc(OCCN2CCCC2)cc1 | 9% |
| O=c1oc(Oc2ccc(F)cc2F)nn1-c1ccc(O)cc1 | 12% |

Molecular target: T1, Fatty-acid amide hydrolase 1
Test: Inhibition of FAAH in rat brain homogenate using 2-arachidonoyl-[3H]-glycerol as substrate by scintillation counting method
Type: tissue-based

| Structure (SMILES) | IC50 |
| --- | --- |
| O=C(N1CCN(Cc2nc3cc(Cl)ccc3n3cccc23)CC1)n1nnc2ccccc21 | 35.8 nM |
| O=C(N1CCN(Cc2nc3ccccc3n3cccc23)CC1)n1nnc2ccccc21 | 23.6 nM |
| O=C(N1CCN(Cc2nc3cc(F)ccc3n3cccc23)CC1)n1nnc2ccccc21 | 23.2 nM |
| Cc1ccc2c(nc(CN3CCN(C(=O)n4cncn4)CC3)c3cccn32)c1C | 32.4 nM |
| Cc1ccc2c(nc(CNC3CCN(C(=O)n4nnc5ccccc54)CC3)c3cccn32)c1C | 25.1 nM |
| O=C(N1CCN(Cc2nc3cc(Cl)ccc3n3cccc23)CC1)n1cncn1 | 25.1 nM |
| O=C(N1CCN(Cc2nc3cc(F)ccc3n3cccc23)CC1)n1cncn1 | 20.7 nM |
| O=C(N1CCC(NCc2nc3cc(F)ccc3n3cccc23)CC1)n1nnc2ccccc21 | 9.6 nM |
| O=C(N1CCN(Cc2nc3ccccc3n3cccc23)CC1)n1cncn1 | 37 nM |
| Cc1ccc2c(nc(CN3CCN(C(=O)n4nnc5ccccc54)CC3)c3cccn32)c1C | 27.3 nM |

Molecular target: T1, Fatty-acid amide hydrolase 1
Test: Inhibition of FAAH in rat brain microsomes using N-(2-hydroxyethyl)-4-pyren-1-ylbutanamide as substrate incubated for 45 mins by reverse-phase HPLC-based fluorescence assay

| Structure (SMILES) | IC50 |
| --- | --- |
| O=C(COc1ccc(Oc2ccccc2)cc1)Cn1ncnn1 | 8 nM |
| CCNC(=O)Nc1ccc2c(cnn2CC(=O)COc2ccc(Oc3ccccc3)cc2)c1 | 1600 nM |
| O=C(COc1ccc(Oc2ccccc2)cc1)Cn1ncc2ccccc21 | 2600 nM |
| N#CNC(COc1ccc(Oc2ccccc2)cc1)Cn1ncnn1 (configuration not stated) | 5300 nM |
| O=C(COc1ccc(Oc2ccccc2)cc1)Cn1ncc2cc(NC(=O)NC3CCCCC3)ccc21 | 840 nM |
| O=C(COc1ccc(Oc2ccccc2)cc1)Cn1ncc2cc(C(=O)O)ccc21 | 55 nM |
| COCC(=O)Nc1ccc2c(cnn2CC(=O)COc2ccc(Oc3ccccc3)cc2)c1 | 6300 nM |
| COC(=O)Nc1ccc2c(cnn2CC(=O)COc2ccc(Oc3ccccc3)cc2)c1 | 4000 nM |
| O=C(COc1ccc(Oc2ccccc2)cc1)Cn1ncc2cc(NC(=O)Nc3ccccc3)ccc21 | 6000 nM |
| O=C(COc1ccc(Oc2ccccc2)cc1)Cn1ncc2cc(C(=O)NS(=O)(=O)c3ccccc3)ccc21 | 4700 nM |
| CS(=O)(=O)NC(=O)c1ccc2c(cnn2CC(=O)COc2ccc(Oc3ccccc3)cc2)c1 | 770 nM |
| O=C(COc1ccc(Oc2ccccc2)cc1)Cn1ncc2cc(NC(=O)CO)ccc21 | 5400 nM |
| O=C(COc1ccc(Oc2ccccc2)cc1)Cn1ncc2cc(NC(=O)Oc3ccccc3)ccc21 | 2100 nM |
| O=C(Cn1nnc2ccccc21)c1nc2cc(Oc3ccccc3)ccc2o1 | 10000 nM |
| O=C(COc1ccc(Oc2ccccc2)cc1)Cn1ncc2cc([N+](=O)[O-])ccc21 | 550 nM |
| O=C(COc1ccc(Oc2ccccc2)cc1)Cn1ncc2cc(C(=O)NS(=O)(=O)C(F)(F)F)ccc21 | 510 nM |
| CC(=O)Nc1ccc2c(cnn2CC(=O)COc2ccc(Oc3ccccc3)cc2)c1 | 3900 nM |

Test system: not listed separately
Test: In vivo inhibition of FAAH in NMRI mouse assessed as remaining enzymatic activity in brain at 30 mg/kg, po measured after 1 hr by AEA-substrate based scintillation counting method relative to control
Type: functional

| Structure (SMILES) | Activity |
| --- | --- |
| O=c1oc(Oc2ccc(F)cc2F)nn1-c1cccc(O)c1 | 94% |
| Cl.O=c1oc(Oc2ccc(F)cc2F)nn1-c1ccc(OCCN2CCCCC2)cc1 | 20% |
| Cl.Cl.O=c1oc(Oc2ccc(F)cc2F)nn1-c1ccc(OCCCN2CCNCC2)cc1 | 85% |
| Cl.Cl.O=c1oc(Oc2ccc(F)cc2F)nn1-c1ccc(OCCN2CCNCC2)cc1 | 74% |
| Cl.O=c1oc(Oc2ccc(F)cc2F)nn1-c1ccc(OCCN2CCCC2)cc1 | 10% |
| O=c1oc(Oc2ccc(F)cc2F)nn1-c1ccc(O)cc1 | 86% |

Molecular target: T1, Fatty-acid amide hydrolase 1
Test: Inhibition of FAAH in rat brain homogenate using [3H]AEA as substrate incubated for 10 mins by liquid scintillation spectroscopy
Type: tissue-based

| Structure (SMILES) | IC50 |
| --- | --- |
| Cc1cccc(N2CCN(C(=O)C(C)c3ccc(CC(C)C)cc3)CC2)c1C (configuration not stated) | 1700 nM |
| CC(C)Cc1ccc(C(C)C(=O)N2CCN(c3ccc(Cl)cc3)CC2)cc1 (configuration not stated) | 1700 nM |
| COc1ccccc1CNC(=O)C(C)c1ccc(CC(C)C)cc1 (configuration not stated) | 18000 nM |
| CC(C)Cc1ccc(C(C)C(=O)NCc2ccc(Cl)c(Cl)c2)cc1 (configuration not stated) | 36000 nM |
| CC(C)Cc1ccc(C(C)C(=O)N2CCN(c3ccccc3)CC2)cc1 (configuration not stated) | 4700 nM |
| COc1ccc(CNC(=O)C(C)c2ccc(CC(C)C)cc2)cc1 (configuration not stated) | 43000 nM |
| COc1ccc(N2CCN(C(=O)C(C)c3ccc(CC(C)C)cc3)CC2)cc1 (configuration not stated) | 4500 nM |
| CC(C)Cc1ccc(C(C)C(=O)NCc2ccc(F)cc2)cc1 (configuration not stated) | 27000 nM |
| Cc1cccc(N2CCN(C(=O)C(C)c3ccc(CC(C)C)cc3)CC2)c1 (configuration not stated) | 16000 nM |
| CC(C)Cc1ccc(C(C)C(=O)N2CCN(c3ccc(Cl)c(Cl)c3)CC2)cc1 (configuration not stated) | 16000 nM |
| CC(C)Cc1ccc(C(C)C(=O)NCc2ccccc2)cc1 (configuration not stated) | 21000 nM |
| CC(C)Cc1ccc(C(C)C(=O)NCc2ccc(C(C)(C)C)cc2)cc1 (configuration not stated) | 25000 nM |
| CC(C)Cc1ccc(C(C)C(=O)NCc2ccc(Cl)cc2)cc1 (configuration not stated) | 27000 nM |
| COc1ccc(CNC(=O)C(C)c2ccc(CC(C)C)cc2)cc1O (configuration not stated) | 18000 nM |
| CC(C)Cc1ccc(C(C)C(=O)NCc2ccc(C(F)(F)F)cc2)cc1 (configuration not stated) | 51000 nM |
| CC(C)Cc1ccc(C(C)C(=O)NCc2cccc(C(F)(F)F)c2)cc1 (configuration not stated) | 28000 nM |
| CC(C)Cc1ccc(C(C)C(=O)N2CCN(c3cccc(Cl)c3)CC2)cc1 (configuration not stated) | 1700 nM |
